Experimental findings from publication PMC5918173, “Characterization of Transglutaminase 2 activity inhibitors in monocytes in vitro and their effect in a mouse model for multiple sclerosis” (PLoS ONE, 2018) are described below.

For orientation: IC50 means the concentration needed to halve the response being measured.

The test system of assay [1] is inflammatory cells in spinal cord of EAE mice. The assay can be described thus: Immunohistochemistry of cell infiltrates (CD45, CD68, CD3) in spinal cord of EAE mice. The assay is classed as in vivo, mouse. Further details: key to CD45 (average) / CD68 (average): -: no positive cells; +: few positive cells; ++: intermediate amounts of positive cells; +++: high amounts of cells/ cellular clusters. To be noted: for CD3 range / CD45 (average) / CD45 range / CD68 (average) / CD68 range: spinal cord of EAE mice, semi-quantitative, 3 sections per animal; for relative amount of inflammatory cells (CD45, CD68, CD3) in spinal cord: visual inspection or semi-quantification, versus vehicle. How it is done: Immunohistochemical staining was performed on cervical, thoracic and lumbar spinal cord sections from EAE mice treated with vehicle, BJJF078 or ERW1041E. The sections were brought back to room temperature and fixed with acetone for 10 min.
For single immunohistochemical stainings (CD3, CD45, CD68), endogenous peroxidase activity was blocked for 15 min with 0.3% hydrogen peroxide and 0.1% sodium azide in TBS. […] The sections were incubated with primary antibodies (Table 1) at 4°C overnight. After subsequent 2 h incubation with appropriate biotinylated IgGs (1/400, Jackson), the procedure was continued with a 1 h incubation with HRP-labelled avidin-biotin complex (ABC complex 1:400, Vector ABC elite kit, Vector laboratories) and the protocol was followed as described for the in situ TG activity staining above. Semi-quantitative analysis of cellular infiltrates per cell type was performed by unbiased manual evaluation of stained lesion areas per spinal cord section.

Assay [2] deals with T1, human TG2 in THP-1/TG2 macrophages (Homo sapiens, UniProt P21980).
T1 construct: expressed in transfected cells; host or cells: THP-1 (TIB-202, ATCC) stably transduced with lentiviral pCDH-hTG2, PMA-differentiated, retinoic acid-stimulated
T1 sequence (P21980 1-687): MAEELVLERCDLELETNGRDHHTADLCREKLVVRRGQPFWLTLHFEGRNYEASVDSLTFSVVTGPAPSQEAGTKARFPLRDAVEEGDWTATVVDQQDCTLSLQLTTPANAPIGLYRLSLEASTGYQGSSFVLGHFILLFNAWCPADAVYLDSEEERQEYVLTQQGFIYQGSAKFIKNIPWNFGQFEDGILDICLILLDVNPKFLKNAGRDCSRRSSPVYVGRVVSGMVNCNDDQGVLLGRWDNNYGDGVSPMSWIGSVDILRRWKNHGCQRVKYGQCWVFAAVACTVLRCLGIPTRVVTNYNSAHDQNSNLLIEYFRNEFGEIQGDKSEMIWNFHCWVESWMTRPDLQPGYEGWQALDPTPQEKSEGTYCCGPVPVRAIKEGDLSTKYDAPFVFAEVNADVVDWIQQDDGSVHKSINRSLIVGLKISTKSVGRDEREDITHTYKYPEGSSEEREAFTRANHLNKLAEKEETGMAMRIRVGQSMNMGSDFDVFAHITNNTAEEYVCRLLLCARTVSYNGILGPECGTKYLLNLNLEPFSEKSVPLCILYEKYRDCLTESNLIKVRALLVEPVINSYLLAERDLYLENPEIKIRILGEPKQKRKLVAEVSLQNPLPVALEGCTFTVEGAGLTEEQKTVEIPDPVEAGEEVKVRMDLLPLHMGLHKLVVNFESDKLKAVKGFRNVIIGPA
The assay can be described thus: Cellular inhibition of TG activity in THP-1/TG2 cells (BAP incorporation). The conditions noted are these: TG2 overexpressing THP-1 macrophages, Fig 2D. It is filed as cell-based. How it is done: Human monocytic THP-1 cells (TIB-202, ATCC) were transduced with a lentiviral vector (pCDH-hTG2, gift from Prof K. Mehta, University of Texas, USA) to overexpress human TG2, to ensure high protein levels in addition to their constitutive expression that can be inhibited. To obtain a stable TG2 overexpressing cell line, transduced cells (THP-1/pCDH-hTG2 (THP-1/TG2)) were positively selected with puromycin and cultured at 37°C and 5% CO2 in air in RPMI-1640 medium (Gibco) supplemented with 10% fetal calf serum (FCS; Gibco), and 50 Units/ml of penicillin and 50 μg/ml streptomycin (Gibco).
THP-1/TG2 cells cultured with 3% FCS were differentiated into macrophages with 250 nM phorbol-12-myristate-13-acetate (Sigma) for 48 h hours. Simultaneously, the cells were stimulated with 1 μM retinoic acid (Fluka) as TG2 expression inducer to ensure maximal TG2 expression and activity. The in vitro TG activity inhibition assay was performed as previously described. In detail, the cells were washed with serum free medium and incubated for 4 h (37°C, 5% CO2) with 1 mM of the TG substrate 5-(biotinamido) pentylamine (BAP, Pierce) in serum free medium. […] The total protein concentration was determined with the BCA method (Pierce, according to protocol) and adjusted to the same concentration in all samples. […] The optical density at 492 nm was measured.

The structures appear in SMILES notation.

As to `C=CC(=O)NC1CCN(S(=O)(=O)c2cccc3c(NC(=O)c4ccc(OC)c(OC)c4)cccc23)CC1` [BJJF078, 3,4-Dimethoxy-N-(5-[4-(acryloylamino)piperidine-1-sulfonyl]-naphthalen-1-yl)-benzamide], in assay [1], the CD3 range entry is “- to +”, the “CD45 (average)” value is recorded as “++”, the CD45 range result is “+ to +++” and the “CD68 (average)” value is given as “++”. In assay [1], the CD68 range result is reported as “- to +++” and the “relative amount of inflammatory cells (CD45, CD68, CD3) in spinal cord” value is “not affected”. Moreover, the 50% inhibitory concentration (IC50) in assay [2] (read-out: IC50 cellular TG2 transamidating activity) was 1800 nM.

As to `O=C(NCC1CC(Br)=NO1)C1CCCN1C(=O)OCc1cnc2ccccc2c1` (centres unmarked) [ERW1041E, 2-[(3-Bromo-4,5-dihydro-isoxazol-5-ylmethyl)-carbamoyl]-pyrrolidine-1—carboxylic acid quinolin-3-ylmethyl ester], in assay [1], the CD3 range result is listed as “- to +”, the “CD45 (average)” value is on record as “++”, the CD45 range result is “+ to +++” and the “CD68 (average)” value was “++”. For the same molecule, in assay [1], the CD68 range entry is “- to +++” and the “relative amount of inflammatory cells (CD45, CD68, CD3) in spinal cord” value is reported as “not affected”. Further, the “effect on cellular TG2 activity” value in assay [2] (0.03 to 100 μM) was “no effect”.
